Patent US20260306428A1 (The Trustees of Indiana University, priority 2023, published 2026)

Legend:
[1] = cited from earlier work
impacted chondrocytes = test: Chondrocyte viability by live/dead staining in impacted cartilage; assay type: cell-based, bovine; conditions: for rescue of chondrocyte viability following AMD: AMPK activation (EX229 1 μM and 10 μM) or SIRT1 activation (SRT1720 1 μM and 5 μM); for prevention of impact-induced chondrocyte death: EX229 1 μM and 10 μM, SRT1720 1 μM and 5 μM
Description: Bovine cartilage was cultured with metformin following an impact from a drop tower device.
As a preliminary assessment, live/dead staining was evaluated in impacted bovine cartilage treated with specific pharmacological activators of AMPK and SIRT1 or left untreated with appropriate vehicle (DMSO).
One half of the explant was assessed for cell viability via live/dead staining, and the other half was stained with MitoTracker Green and TMRM to evaluate mitochondrial health.

Complex I [2] = conditions: in vivo; cited from earlier work
SIRT1 = conditions: role: activator; cited from earlier work
caspase 3/7 = test: Apoptosis via activated caspase 3/7 signalling (CellEvent) in sublethally impacted cartilage explants; assay type: cell-based, bovine; conditions: sublethal impact, 24 hr post-impact
Text: (§1) Bovine cartilage explants were impacted with sublethal force to evaluate the injury response in viable chondrocytes.
(§2) Apoptosis and Oxidative Stress: Cartilage was removed from subchondral bone and stained for apoptosis via activated caspase 3/7signalling (CellEvent, Invitrogen) or ROS (CellRox, Invitrogen) 24 hr post-impact, as shown in FIG. 1A and FIG. 1B, respectively.

[3] = tested on: mitochondria in chondrocytes; test: Mitochondrial function (TMRM / MitoTracker Green red:green ratio) in cartilage explants; assay type: cell-based, bovine
[4] = tested on: reactive oxygen species (ROS); test: Oxidative stress / ROS staining (CellRox) in sublethally impacted cartilage explants; assay type: cell-based, bovine; conditions: sublethal impact, 24 hr post-impact, 10 mM
Text: as §1, §2

Complex I [5] = conditions: role: inhibitor; cited from earlier work
AMPK = conditions: role: activator; cited from earlier work
[6] = oral, anti-diabetic treatment; cited from earlier work
[7] = impacted, EX229 1 μM and 10 μM (FIG. 4A), SRT1720 1 μM and 5 μM (FIG. 4B)

Cc1ccc(Oc2nc3cc(-c4ccc5c(ccn5C)c4)c(Cl)cc3[nH]2)cc1C(=O)O [EX229]
solubility in aqueous solutions [1]: low solubility | rescue of chondrocyte viability following AMD (impacted chondrocytes; impacted): rescues the AMD-induced decrease in chondrocyte viability | cell viability (live/dead staining) (impacted chondrocytes; [7]): improved cell viability in impacted chondrocytes in a dose-dependent manner | prevention of impact-induced chondrocyte death (impacted chondrocytes; impacted): neither of these activators completely prevented impact-induced chondrocyte death

O=C(Nc1ccccc1-c1cn2c(CN3CCNCC3)csc2n1)c1cnc2ccccc2n1 [SRT1720]
solubility in aqueous solutions [1]: low solubility | rescue of chondrocyte viability following AMD (impacted chondrocytes; impacted): rescues chondrocyte viability following AMD | cell viability (live/dead staining) (impacted chondrocytes; [7]): improved cell viability in impacted chondrocytes in a dose-dependent manner | prevention of impact-induced chondrocyte death (impacted chondrocytes; impacted): neither of these activators completely prevented impact-induced chondrocyte death

CCC1(CCC(C)C)C(=O)NC(=O)NC1=O [amobarbital]
block of mitochondrial electron transport at complex I (Complex I [2]): blocks mitochondrial electron transport at complex I to prevent chondrocyte dysfunction and apoptosis

CN(C)C(=N)NC(=N)N.Cl [metformin, 1,1-dimethylbiguanide hydrochloride]
activation of SIRT1 (SIRT1): activates AMPK and SIRT1 | apoptotic signalling (caspase 3/7) (caspase 3/7; 1 mM): only partially reduced apoptotic signalling | apoptosis (caspase 3/7 signalling) (caspase 3/7; 1 mM, 5 mM and 10 mM): dose-dependent decrease | apoptosis (caspase 3/7) (caspase 3/7; 10 mM): completely suppressed apoptosis | mitochondrial dysfunction in impacted chondrocytes ([3]; impacted explants, 24 hours post-impact, 10 mM and 50 mM): rescues mitochondrial dysfunction in impacted chondrocytes in a dose-dependent manner | mitochondrial function of impacted chondrocytes ([3]; impacted, 125 mM, vs untreated impacted chondrocytes): not significantly different from that of untreated impacted chondrocytes | mitochondrial function of non-impacted chondrocytes ([3]; non-impacted, 125 mM): slightly declined | oxidative stress (ROS) [4]: full suppression of oxidative stress | inhibition of Complex I (Complex I [5]): inhibiting Complex I | activation of AMPK (AMPK): activates AMPK | side effects [6]: nausea, vomiting, diarrhoea, and stomach pain | cell viability (live/dead staining) (impacted chondrocytes; drop tower impact, 24 hr post-impact, 10 mM): improved cell viability | cell viability (live/dead staining) (impacted chondrocytes; drop tower impact, 24 hr post-impact, 50 mM): completely rescue impacted chondrocytes | cell viability (live/dead staining), data not shown (impacted chondrocytes; impacted bovine cartilage, 125 mM, trends similar to mitochondrial function): showed similar trends
